One data set concerns the target T1, ABCG2 (Homo sapiens, UniProt Q9UNQ0).
T1 sequence (Q9UNQ0 1-655): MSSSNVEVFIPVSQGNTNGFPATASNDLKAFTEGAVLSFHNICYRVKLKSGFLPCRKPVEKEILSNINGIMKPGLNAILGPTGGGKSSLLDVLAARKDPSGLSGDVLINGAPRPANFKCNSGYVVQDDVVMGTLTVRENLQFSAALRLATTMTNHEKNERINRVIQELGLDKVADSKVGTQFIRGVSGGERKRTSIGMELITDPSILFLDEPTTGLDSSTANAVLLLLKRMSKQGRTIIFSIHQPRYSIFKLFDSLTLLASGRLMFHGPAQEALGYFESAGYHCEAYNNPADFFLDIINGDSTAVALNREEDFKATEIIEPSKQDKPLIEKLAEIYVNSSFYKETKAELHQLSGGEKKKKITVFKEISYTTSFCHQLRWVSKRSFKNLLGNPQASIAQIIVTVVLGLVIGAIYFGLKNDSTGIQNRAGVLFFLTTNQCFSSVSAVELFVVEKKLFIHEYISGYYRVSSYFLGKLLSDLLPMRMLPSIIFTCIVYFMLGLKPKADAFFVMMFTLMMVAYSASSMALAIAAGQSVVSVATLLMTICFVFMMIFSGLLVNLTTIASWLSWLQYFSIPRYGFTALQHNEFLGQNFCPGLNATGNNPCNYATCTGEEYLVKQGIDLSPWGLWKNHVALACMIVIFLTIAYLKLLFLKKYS
The conditions noted are these: Cusatis and Sparreboom, 2008; cited from earlier work.

Data set [1] relates to pancreatic cancer cell lines. In words: Kinetic cell growth assay, panel of pancreatic cancer cell lines. Conditions: for IC50: PDAC cell lines. Type of data set: cell-based, human. A digest of the protocol:
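Pancreatic cancer cells seeded at 2-4×10^3 (low) or 15-20×10^3 (high density) per well; compounds added at several doses 24 h after plating. Confluence imaged live (Incucyte) hourly for 48-144 h or until DMSO controls reached 100% confluence.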

In data set [2] the test system is patient-derived xenograft (PDX) models. In words: Patient-derived xenograft (PDX) models, tumor growth inhibition. Type of data set: in vivo, mouse. Conditions: 20 PDX models, p=0.01. The source says: An alternative to an endogenous mouse models for capturing effects of the tumor environment are patient-derived xenograft (PDX) models. […] At the cellular level, PDX models also preserve the intra-tumoral heterogeneity, as well as the molecular characteristics of the original cancer, including copy number variants, single-nucleotide polymorphisms, and gene expression profiles (Choi et al., 2014; DeRose et al., 2011). […] When patient-derived xenograft PDX models were used to assess whether YAP activation sensitizes solid tumors to gemcitabine significant effects were found. The studies were performed in the following manner: Tumor fragments (around 64 mm^3) were implanted into the flanks of recipient mice and tumor dimensions recorded with digital calipers. Once tumor implants reached a volume of approximately 200 mm3, dosing with gemcitabine (or vehicle control) began. At the completion of the study completion, the percent tumor growth inhibition (% TGI) was calculated for gemcitabine (G) and the vehicle control (C) using initial (i) and final (f) tumor measurements by the formula: % TGI=[1−(Gf−Gi)/(Cf−Ci)]x100.
Patient-derived xenograft (PDX) models. PDX models were established by Champions Oncology (Baltimore, Md.) as described previously (Khor et al., 2015). Drug response to 20 PDX models was obtained from Champions TumorGraft® Database (available on the world wide web at database.championsoncology.com/).
Immunohistochemistry. Human primary tumor tissue slides were obtained from Champions Oncology (Baltimore, Md.). Immunohistochemistry using anti YAP1 antibody (Abcam Cat # ab52771) was performed as previously described (Shi et al., 1999). For negative controls, primary antibody was omitted. The intensity of YAP staining was assessed by an independent pathologist using a four-grade scale: “0” is negative. “0.5” is borderline staining with no significance. “1” is weak staining. “1.5” is weak staining with foci of moderate staining. “2” is moderate staining. […] YAP scoring index was calculated based on staining intensity * % of positive target cells.

For data set [3] the following is noted: cited from earlier work.
A further data set deals with H2052 (LATS2) cells. In words: Gemcitabine and dFdU efflux by LC-MS/MS, H2052 cells. Type of data set: in vitro ADME. Conditions: higher in H2052 (LATS2). The source says: Are defects in the Hippo pathway the major cause of gemcitabine sensitivity? […] Restoring the levels of LATS2 in H2052 cells caused an increase in the mRNA and proteins levels of ABCG2 and CDA (FIGS. 23C, 36A-36M).

These results are taken from patent US20200216906A1, “METHODS AND COMPOSITIONS RELATING TO THE DIAGNOSIS AND TREATMENT OF CANCER” (PRESIDENT AND FELLOWS OF HARVARD COLLEGE, priority 2015, published 2020).

Where a name gives a salt, the structure may show the parent alone. Read-outs that look alike come from different tables or passages of the source. Some results are limits rather than exact numbers.

With `Nc1ccn([C@@H]2O[C@H](CO)[C@@H](O)C2(F)F)c(=O)n1` [Gemcitabine, Gemcitabine hydrochloride], the “Substrate of ABCG2” value on ABCG2 is “substrates of ABCG2”. The concentration for half-maximal inhibition (IC50) in data set [1] (Homo sapiens, Pancreatic cancer cell, dense culture, read-out: IC50, resistant in dense culture) is > 1 µM; in data set [1] (Homo sapiens, Pancreatic cancer cell, sparse culture, read-out: IC50, sensitive in sparse culture), < 0.1 µM. Besides, the EC50 in data set [1] (Homo sapiens, Pancreatic cancer cell, low crowding conditions (10-25% confluence), all cell lines tested, read-out: EC50 on cell growth) was < 0.2 µM. For the same molecule, the “Dependence of cellular response on cell crowding” value in data set [1] (seven PDAC cell lines, threshold >100 fold difference in EC50) is “dependent on cell crowding”. In addition, the “Density dependence of efficacy” value in data set [1] (seven pancreatic cancer cell lines, sparse and dense conditions) is recorded as “density-dependent”. In addition, in data set [2], the “Difference in % TGI, high vs low YAP activity tumors” value was ~2 fold. Moreover, the “Patients without objective response to treatment” value in data set [3] (patients treated with gemcitabine) is > 75%. In addition, in data set [3] (standard-of-care therapy, pancreatic cancer), the Median overall survival entry was “six”. Also, in the data set with H2052 (LATS2) cells, the “Effluxed gemcitabine in media, H2052 (LATS2) vs parental H2052 (LATS2−/−)” value was ~10 fold.
